Assay results as given in ChEMBL document CHEMBL1614632, “Trend analysis of a database of intravenous pharmacokinetic parameters in humans for 670 drug compounds” (Drug Metab Dispos, 2008).
Numbered stars: 1 amine (or outer) side, 2 acyl side, 3 side chain; on linkers, the order of the positions; unused ones are H or OH. Bridge positions count the residues as written; N and C are the ends. Square brackets hold non-standard residues; d marks the D form. Peptide text beside a SMILES is read from it. * marks the point of attachment. hTyr(3S-OH,4S-OH,3'-OSO3H) = N[C@H](C(=O)O)[C@H](O)[C@@H](O)c1ccc(O)c(OS(=O)(=O)O)c1; Orn(4R-OH,5R-OH) = O=C([C@H](C[C@@H](O)[C@@H](O)N[*:3])N[*:1])[*:2]; Pro(3S-OH,4S-Me) = C[C@H]1CN[C@H](C(=O)O)[C@H]1O; X1 = CCCCCOc1ccc(-c2cc(-c3ccc(C(=O)*)cc3)no2)cc1; Gln(3R-OH) = NC(=O)C[C@@H](O)[C@H](N)C(=O)O; Hyp = O=C(O)[C@@H]1C[C@@H](O)CN1

Experiments:
clinical [1] = settings: human, in vivo, iv, CL
clinical [2] = settings: human, in vivo, iv
clinical [3] = settings: human, in vivo, iv; remark: listed apart in the source
clinical [4] = settings: human, in vivo, iv, t1/2
clinical [5] = settings: human, in vivo, iv, Vdss

Row | SMILES | clearance (clinical [1]) [mL/min/kg] | MRT (clinical [2]) [h] | fraction unbound (clinical [3]) | half-life (clinical [4]) [h] | Vd (clinical [5]) [L/kg]
1 | CCC(=O)O[C@]1(C(=O)SCF)[C@H](C)C[C@H]2[C@@H]3C[C@H](F)C4=CC(=O)C=C[C@]4(C)[C@@]3(F)[C@@H](O)C[C@@]21C [FLUTICASONE PROPIONATE] | 17 | 3.9 | 0.1 | 6 | 3.6
2 | CC(C)N(CCC(C(N)=O)(c1ccccc1)c1ccccn1)C(C)C (configuration not stated) [DISOPYRAMIDE] | 0.9 | 9.6 | 0.16 | 7 | 0.52
3 | CO/N=C(\C(=O)N[C@@H]1C(=O)N2C(C(=O)[O-])=C(C[n+]3cccc4c3CCC4)CS[C@H]12)c1csc(N)n1 [CEFPIROME] | 1.9 | 2.1 | 0.9 | 1.7 | 0.24
4 | CO[C@@]1(NC(=O)Cc2cccs2)C(=O)N2C(C(=O)O)=C(COC(N)=O)CS[C@@H]21 [CEFOXITIN] | 3.6 | 0.79 | 0.73 | 0.81 | 0.17
5 | Cc1ccccc1OCC(O)CNCCOc1ccc(C(N)=O)cc1 (configuration not stated) [TOLAMOLOL] | 14 | 4.8 | 0.089 | 2.5 | 4
6 | COC(=O)C1=C(C)NC(C)=C(C(=O)OC(C)C)C1c1cccc2nonc12 (configuration not stated) [ISRADIPINE] | 26 | 1 | 0.04 | 3.3 | 1.5
7 | Cc1cccc(N2CC(CO)OC2=O)c1 (configuration not stated) [TOLOXATONE] | 11 | 2.3 | 0.49 | 1.6 | 1.5
8 | CCCCCOc1ccc(-c2cc(-c3ccc(C(=O)N[C@H]4C[C@@H](O)[C@@H](O)NC(=O)[C@@H]5[C@@H](O)[C@@H](C)CN5C(=O)[C@H]([C@H](O)CC(N)=O)NC(=O)[C@H]([C@H](O)[C@@H](O)c5ccc(O)c(OS(=O)(=O)O)c5)NC(=O)[C@@H]5C[C@@H](O)CN5C(=O)[C@H]([C@@H](C)O)NC4=O)cc3)no2)cc1 [MICAFUNGIN] (X1-[Orn(4R-OH,5R-OH)]T[Hyp][hTyr(3S-OH,4S-OH,3'-OSO3H)][Gln(3R-OH)][Pro(3S-OH,4S-Me)]; lactam 1-C) | 0.17 | 21 | 0.0023 | 16 | 0.21
9 | Cn1nnnc1SCC1=C(C(=O)O)N2C(=O)[C@@H](NC(=O)[C@H](O)c3ccccc3)[C@H]2SC1 [CEFAMANDOLE] | 3.6 | 0.75 | 0.25 | 0.75 | 0.16
10 | O=C(NC1CCN(CCc2c[nH]c3ccccc23)CC1)c1ccccc1 [INDORAMIN] | 20 | 4.1 | 0.15 | 4.3 | 4.9
11 | CCCCC1=NC2(CCCC2)C(=O)N1Cc1ccc(-c2ccccc2-c2nnn[nH]2)cc1 [IRBESARTAN] | 2.3 | 6.8 | 0.1 | 14 | 0.94
12 | C[C@H]1O[C@@H](O[C@H]2[C@@H](O)C[C@H](O[C@H]3[C@@H](O)C[C@H](O[C@H]4CC[C@@]5(C)[C@H](CC[C@@H]6[C@@H]5CC[C@]5(C)[C@@H](C7=CC(=O)OC7)CC[C@]65O)C4)O[C@@H]3C)O[C@@H]2C)C[C@H](O)[C@@H]1O [DIGITOXIN] | 0.043 | 170 | 0.066 |  | 0.44
13 | CN(C)[C@@H]1C(O)=C(C(=O)NCN2CCCC2)C(=O)[C@@]2(O)C(O)=C3C(=O)c4c(O)cccc4[C@@](C)(O)[C@H]3C[C@@H]12 [ROLITETRACYCLINE] | 0.97 | 9.3 | 0.5 | 8.8 | 0.54
14 | CO/N=C(\C(=O)N[C@@H]1C(=O)N2C(C(=O)O)=C(C)CS[C@H]12)c1csc(N)n1 | 1.9 | 2.5 | 0.78 | 2.1 | 0.28
15 | CN(C)/N=N/c1[nH]cnc1C(N)=O [DACARBAZINE] | 2.6 | 7.8 | 1 | 6.2 | 1.2
16 | CC[C@H](OC(C)=O)C(C[C@H](C)N(C)C)(c1ccccc1)c1ccccc1 [LEVOMETHADYL ACETATE] | 5.4 | 26 | 0.2 |  | 8.3
17 | Nc1nc(NC2CC2)c2ncn([C@H]3C=C[C@@H](CO)C3)c2n1 [ABACAVIR] | 13 | 1.1 | 0.5 | 1 | 0.84
18 | CCCn1c(=O)[nH]c(=O)c2[nH]cnc21 [ENPROFYLLINE] | 4 | 2.6 | 0.55 | 1.8 | 0.63
19 | CCCC(C)(COC(N)=O)COC(N)=O [MEPROBAMATE] | 0.6 | 19 | 1 | 14 | 0.7
20 | Nc1ccc(O)c(C(=O)O)c1 [MESALAMINE] | 9.3 | 0.59 | 0.39 | 0.61 | 0.33

Row | SMILES | clearance (clinical [1]) [mL/min/kg] | MRT (clinical [2]) [h] | fraction unbound (clinical [3]) | half-life (clinical [4]) [h] | Vd (clinical [5]) [L/kg]
21 | Nc1n[n+]([O-])c2ccccc2[n+]1[O-] [TIRAPAZAMINE] | 8.9 | 1 | 0.81 |  | 0.56
22 | CN1CCc2cccc3c2[C@H]1Cc1ccc(O)c(O)c1-3 [APOMORPHINE] | 40 |  | 0.057 |  | 1.6
23 | NNC(=O)c1ccncc1 [ISONIAZID] | 7.4 | 1.8 | 1 |  | 0.82
24 | CCCCCCCCCCNCCN[C@@]1(C)C[C@H](O[C@H]2[C@H](Oc3c4cc5cc3Oc3ccc(cc3Cl)[C@@H](O)[C@@H](NC(=O)[C@@H](CC(C)C)NC)C(=O)N[C@@H](CC(N)=O)C(=O)N[C@H]5C(=O)N[C@H]3C(=O)N[C@H](C(=O)N[C@H](C(=O)O)c5cc(O)c(CNCP(=O)(O)O)c(O)c5-c5cc3ccc5O)[C@H](O)c3ccc(c(Cl)c3)O4)O[C@H](CO)[C@@H](O)[C@@H]2O)O[C@@H](C)[C@H]1O [TELAVANCIN] | 0.2 | 9.2 | 0.07 | 6.7 | 
25 | CC/C=C\C/C=C\C/C=C\C/C=C\C/C=C\C/C=C/CCC(=O)O[C@@H](C(=O)O[C@H]1C[C@@]2(O)[C@@H](OC(=O)c3ccccc3)C3[C@](C)(C(=O)[C@H](OC(C)=O)C(=C1C)C2(C)C)[C@@H](O)C[C@H]1OC[C@@]31OC(C)=O)[C@@H](NC(=O)c1ccccc1)c1ccccc1 (some centres not stated) [DHA PACLITAXEL] | 0.025 | 45 | 0.0038 | 60 | 
26 | COc1ccccc1Oc1c(NS(=O)(=O)c2ccc(C(C)C)cn2)nc(-c2ccnc(-c3nnn[nH]3)c2)nc1OCCO [TEZOSENTAN] | 8.1 |  | 0.0085 | 3.8 | 0.28
27 | CC(C)(O/N=C(\C(=O)N[C@@H]1C(=O)N2C(C(=O)[O-])=C(C[n+]3ccccc3)CS[C@H]12)c1csc(N)n1)C(=O)O [CEFTAZIDIME] | 2.4 | 2.2 | 0.79 |  | 0.31
28 | CC[C@H](C)C[C@H](C)CCCCCCCCC(=O)N[C@H]1C[C@@H](O)[C@@H](NCCN)NC(=O)[C@@H]2[C@@H](O)CCN2C(=O)[C@H]([C@H](O)CCN)NC(=O)[C@H]([C@H](O)[C@@H](O)c2ccc(O)cc2)NC(=O)[C@@H]2C[C@@H](O)CN2C(=O)[C@H]([C@@H](C)O)NC1=O [CASPOFUNGIN] | 0.14 | 15 | 0.035 |  | 0.13
29 | Cc1onc(-c2c(F)cccc2Cl)c1C(=O)N[C@@H]1C(=O)N2[C@@H]1SC(C)(C)[C@@H]2C(=O)O [FLOXACILLIN] | 2.4 | 1.3 | 0.043 |  | 0.19
30 | CCc1cccc2cc(C(O)CNC(C)(C)C)oc12 (configuration not stated) [BUFURALOL] | 8.9 | 3.18 | 0.19 | 2.3 | 
31 | Cc1cccc(C)c1NC(=O)NCCCNC(C)C | 4.5 | 5.2 | 0.86 | 5 | 
32 | COc1ccc2c3c1O[C@H]1[C@@H](O)C=C[C@H]4[C@@H](C2)N(C)CC[C@@]341 [CODEINE] | 15 | 3.9 | 0.7 | 4 | 
33 | CC(C)=CCN1CC[C@]2(C)c3cc(O)ccc3C[C@H]1[C@H]2C [(+)-PENTAZOCINE] | 23 | 2.5 | 0.39 |  | 3.4
34 | CC#CCC(C)[C@H](O)/C=C/[C@@H]1[C@H]2C/C(=C/CCCC(=O)O)C[C@H]2C[C@H]1O (some centres not stated) [ILOPROST] | 16 |  | 0.4 | 0.57 | 0.37
35 | CCC[C@H](N[C@@H](C)C(=O)N1[C@H](C(=O)O)C[C@@H]2CCCC[C@@H]21)C(=O)O [PERINDOPRILAT] | 1.7 | 7.6 | 0.16 | 29 | 
36 | CCCCC(=O)N(Cc1ccc(-c2ccccc2-c2nnn[nH]2)cc1)[C@H](C(=O)O)C(C)C | 0.49 | 7.5 | 0.04 | 9.5 | 
37 | N[C@@H](Cc1ccc(N(CCCl)CCCl)cc1)C(=O)O | 7 | 1.1 | 0.14 |  | 0.48
38 | CO[C@@]1(NC(=O)C2SC(=C(C(N)=O)C(=O)O)S2)C(=O)N2C(C(=O)O)=C(CSc3nnnn3C)CS[C@@H]21 (some centres not stated) [CEFOTETAN] | 0.42 | 5.2 | 0.15 | 4.5 | 
39 | COc1ccc2c3c1O[C@H]1C(=O)CC[C@@]4(O)[C@@H](C2)N(C)CC[C@]314 [OXYCODONE] | 6.1 | 6.8 | 0.55 | 5.5 | 
40 | CN[C@@H]1[C@@H](O)[C@@H](O[C@@H]2[C@@H](O)[C@H](O[C@H]3O[C@H](CN)[C@@H](O)[C@H](O)[C@H]3O)[C@@H](N)C[C@H]2NC(=O)[C@@H](O)CN)OC[C@]1(C)O [ISEPAMICIN] | 1.3 | 4.1 | 0.95 | 24 | 
